The text below walks through data of publication PMC8012336, “An automated and high-throughput-screening compatible pluripotent stem cell-based test platform for developmental and reproductive toxicity assessment of small molecule compounds” (Cell Biology and Toxicology, 2020).

≈ marks a conversion by molar mass, not a printed value.

The subject of series [1] is mESC-D3. The series can be described thus: Conventional mouse ES-D3 differentiation assay in hanging drop format (petri dish; cardiomyocyte contraction, day 10). Format: cell-based. To be noted: manual; beating cardiomyocytes at day 10; in brackets the two individual experiments. Here is the method:
Separate Petri dishes were used for each concentration of test compound, untreated control, and solvent control. […] The EB suspension was incubated for 2 days. On day five of the assay, a fresh compound dilution series was prepared in media and transferred into 24-well cell culture plates (1 ml/well, Greiner bio-one, Cat. No. 662641). A separate 24-well plate was used for each compound concentration, untreated control, and solvent control (24 wells per condition). One EB was transferred from the Petri dish into each well of the 24-well plate. After further 5 days of incubation (= day 10 of the assay), cardiomyocyte contraction was determined in each well under the light microscope.

Series [2] in a line: Manual CellTiter-Glo luminescent cell viability assay (7 d or 5 d). The series is classed as cell-based, mouse. To be noted: mouse, in brackets the two individual experiments. Here is the method:
96-well cell culture plates were coated with gelatin (0.1%) before plating mESC-D3. All peripheral wells of the assay plate were filled with 200 μl growth media. In order to assess compound toxicity on mESC-D3 and NIH/3T3 cells, cell suspensions of NIH/3T3, and mESC-D3 were prepared in growth media (1 × 10^4 cells/ml) and were transferred to all remaining wells (50 μl/well). A 7-point dilution series in growth media was prepared for each test compound and was transferred to the assay plate 2 h after cell seeding (150 μl/well). Afterward, the cells were incubated in a humidified atmosphere at 37 °C and 5% CO2. Three and 5 days after seeding the cell supernatant was replaced by freshly prepared compound solution (200 μl/well). […] The assay plate was placed on a shaker for 1 min and after another 10 min incubation at room temperature in the dark the luminescence signal was detected on a plate reader.
(§1) Toxicity data from the MTT and CellTiter-Glo Assay was normalized against the vehicle control (100% viability) and plotted against the logarithmic compound concentration.

Series [3] can be described thus: Manual MTT cell viability assay, 7 d. Format: cell-based, mouse. To be noted: mouse, manual, in brackets the two individual experiments. Here is the method: (§2) The MTT cell viability assay was performed as described (Seiler and Spielmann [2011]) with modifications. In brief, 96-well cell culture plates were coated with gelatin (0.1%) before plating mESC-D3. All peripheral wells of the assay plate were filled with 200 μl growth media (“blank”). Afterward, NIH/3T3 and mESC-D3 were plated in growth media (1 × 10^4 cells/ml, 50 μl/well). […] Vehicle (PBS) and positive control (5-fluorouracil) wells were also included on all assay plates. Three and 5 days after seeding the cell supernatant was replaced by freshly prepared compound solution (200 μl/well). Seven days after seeding the cell viability was detected. Therefore, the cell supernatant was aspirated from all wells, MTT solution (5 mg/ml) was added (20 μl/well) and the assay plate was incubated for 2 h at 37 °C and 5% CO2 in a humidified atmosphere. Afterward, all liquid was removed from the wells and MTT desorb solution (0.7% SDS in 2-propanol (Carl Roth, Cat. No. 9866.5), pre-warmed to 37 °C) was dispensed (130 μl/well). The assay plate was placed on a shaker for 15 min. Remaining precipitates were suspended by pipetting up and down with a multichannel pipette before measuring the absorption at 570 nm on a microtiter plate reader using 630 nm as a reference wavelength.
as §1
(Tetrazolium dyes change colour on reduction, which living cells bring about.)

The nature of series [4]: Automated CellTiter-Glo luminescent cell viability (cytotoxicity) assay, 5 d. To be noted: mouse. Here is the method: The CellTiter-Glo® luminescent cell viability assay (Promega, Cat. No. G7573) was automated in 96-well format on the lab automation platform Fluent® (Tecan, Männedorf, Switzerland). The procedure allowed the testing of six compounds in mESC-D3 and NIH/3T3 cells in parallel. On the first day, PBS was dispensed into the peripheral wells of the assay plates (200 μl/well) using the Multiple Channel Arm (MCA). Mouse ES-D3 and NIH/3T3 cells were plated (50 μl/well, 1 × 10^4 cells/ml)) using the Flexible Channel Arm (FCA) and transported into the Cytomat™ 10 (Thermo Fisher Scientific) for incubation using the Robotic Gripper Arm (RGA). A 7-point dilution series of the test compounds and control solutions were prepared in PBS or DMSO (Carl Roth, Cat. No. HN47.1) under the laminar flow, transferred to a 96-well 0.5-ml Masterblock plate (Greiner bio-one, Cat. No. 786261) and placed on the worktable. On the Fluent the compounds were transferred to a 96-well 2-ml Masterblock plate (Greiner bio-one, Cat. No. 780271) and further diluted in growth media using the FCA. Two hours after cell plating compounds and controls were transferred to the assay plate with the FCA (150 μl/well) and transported back in the Cytomat 10. On day three of the assay, the media was exchanged using the MCA: old media was aspirated and dispensed into a 96-deep-well plate (“waste”), freshly prepared compound, and control solution was dispensed into the assay plate. After two more days of incubation, the cell viability was determined using the CellTiter-Glo assay. The assay plates were transported from the Cytomat 10 to the Carousel (Tecan) to adapt to room temperature. After 25 min the cell supernatant was removed partially (80 μl/well) and CellTiter-Glo reagent was dispensed (50 μl/well). The assay plate was placed on a shaker for 1 min and afterward incubated 25 min in the Carousel before the Luminescence signal was detected on the Infinite M1000 Pro plate reader (Tecan).
as §1
On the technique in general: Cellular ATP, detected with luciferase, serves as a proxy for viable cell number.

Series [5] has as its system NIH/3T3. Also on record: method as in Scholz et al. [1999]. The conditions noted are these: ZEBET value, 7 d result; ref Scholz et al. [1999]; cited from earlier work.
Series [6] is described as follows: Manual human EST cytotoxicity assay, CellTiter-Glo, 5 d. To be noted: human. Here is the method: (§3) The cytotoxicity assessment with a reduced assay time of 5 days combined with either NADH- or ATP-based detection was also carried out with human induced pluripotent stem cells (hiPSCs). […] Furthermore, differences in the cytotoxicity effects between the hiPSCs and HDFfs were more pronounced than in the mouse cells. Similar to the cytotoxicity-based assay the overall variance in the data is reduced when viability data was obtained by an ATP-based read-out.
96-well cell culture plates were coated with gelatin (0.1%) before plating mESC-D3. All peripheral wells of the assay plate were filled with 200 μl growth media. In order to assess compound toxicity on mESC-D3 and NIH/3T3 cells, cell suspensions of NIH/3T3, and mESC-D3 were prepared in growth media (1 × 10^4 cells/ml) and were transferred to all remaining wells (50 μl/well). A 7-point dilution series in growth media was prepared for each test compound and was transferred to the assay plate 2 h after cell seeding (150 μl/well). Afterward, the cells were incubated in a humidified atmosphere at 37 °C and 5% CO2. Three and 5 days after seeding the cell supernatant was replaced by freshly prepared compound solution (200 μl/well). Seven days after seeding the assay plate was taken out of the incubator and located at room temperature for 10 min, before cell supernatant was aspirated (80 μl/well) and CellTiter-Glo® reagent was dispensed (50 μl/well). The assay plate was placed on a shaker for 1 min and after another 10 min incubation at room temperature in the dark the luminescence signal was detected on a plate reader.
(§4) Figure S1: Step-wise evolution of the cytotoxicity assay towards the use of human cell lines. Related to Figure 2. Cytotoxicity assays were carried out with two compound sets on hiPSC line ZIPi013-E and HDFf, from which they were derived. […] A) 5 day MTT assay and manual handling. B) As in A), but using CellTiter-Glo® viability assay. All points in the graph represent the mean of 6 individual data points, including the standard error.

In series [7] the test system is mESC-D3. Also on record: method as in Scholz et al. [1999]. The conditions noted are these: ZEBET value, 7 d result; ref Scholz et al. [1999]; cited from earlier work.
The subject of series [8] is mESC-D3. Also on record: method as in Scholz et al. [1999]. The conditions noted are these: ZEBET value printed beside hanging drop differentiation result; ref Scholz et al. [1999]; cited from earlier work.
Series [9] in a line: Manual human EST cytotoxicity assay, MTT, 5 d. To be noted: human. The method, then:
as §3, §2, §4

Setting [10] is: HDFf (human dermal fibroblasts of fetal origin).

For `CC1(C)S[C@@H]2[C@H](NC(=O)Cc3ccccc3)C(=O)N2[C@H]1C(=O)O` [Penicillin G, penicillin G], the “Differentiation assay in hanging drop (petri dish) ID50 mESC-D3” value in [1] is given as 1000 (> 1000; > 1000) µg/ml. Further, the IC50 at 5 d in [2] (NIH/3T3 cells, read-out: Cytotoxicity assay CTG, 5 d IC50 NIH/3T3) was 992 µg/mL (≈ 2970 µM); in series [2] (mESC-D3 cells, read-out: Cytotoxicity assay CTG, 5 d IC50 mESC-D3) it was over 1000 µg/mL; in series [4] (NIH/3T3 cells) it was over 1000 µg/mL; in [4] (mESC-D3 cells (mouse embryonic stem cells)) it was over 1000 µg/mL; in series [6] (setting [10]), 795 µg/mL (≈ 2380 µM); in series [6] (hiPSC line ZIPi013-E), over 1000 µg/mL. For the same compound, the IC50 at 5 d was determined as 822 µg/mL (≈ 2460 µM) in series [9] (setting [10]) and 750 µg/mL (≈ 2240 µM) in series [9] (hiPSC line ZIPi013-E). Moreover, the IC50 at 7 d in [2] (NIH/3T3 cells, read-out: Cytotoxicity assay CTG, 7 d IC50 NIH/ 3T3) is over 1000 µg/mL; in series [2] (mESC-D3 cells, read-out: Cytotoxicity assay CTG, 7 d IC50 mESC-D3), over 1000 µg/mL; in series [3] (NIH/3T3 cells, read-out: Cytotoxicity assay MTT, 7 d IC50 NIH/3T3), over 1000 µg/mL; in series [3] (mESC-D3 cells, read-out: Cytotoxicity assay MTT, 7 d IC50 mESC-D3), over 1000 µg/mL. Besides, in [5], the “IC50 NIH/3T3 (ZEBET)” value is 1586 µg/mL (≈ 4740 µM). Further, in series [7], the “IC50 mESC-D3 (ZEBET)” value was 2950 µg/mL (≈ 8820 µM). Besides, in series [8], the “ID50 mESC-D3 (ZEBET)” value was 3450 µg/mL (≈ 10300 µM).
